The test system of data set [1] is HeLa cells. The settings on record: HeLa, 48 h. The text has this: For this, we use PE-III, the third domain of the Pseudomonas exotoxin. This 25 kDa enzyme ADP ribosylates ribosomal elongation factor 2, thereby blocking protein synthesis and triggering apoptosis. […] Thus, apoptosis will occur only if an exogenous agent, such as a peptide, enables cytosolic delivery of the 4 × 3 nm PE-III protein, Figure 2A.
Comparison of peptide concentration midpoints requires a constant concentration of PE-III in each experiment. […] The major disadvantage of the PE-III assay to detect delivery is that only a few molecules of active PE-III delivered to the cytosol[36] will produce a positive result. To partly mitigate this effect in the assays described below, we use a constant 40 nM PE-III. At such a low concentration, each endosome will contain an average of fewer than one PE-III molecule if we assume passive entrapment of the cargo (see the Supporting Information).
The no treatment (no tx) control group contained cells but no peptide or PE-III enzyme. The Alamar Blue intensity of this group was defined as 100% viability. Media alone without cells was defined as 0% viability.
The concentration range used for each peptide was adjusted according to preliminary measurements of activity in this assay. We assessed PE-III delivery by measuring cell viability using Alamar Blue.
Fifteen thousand HeLa cells were seeded in a clear bottom, black-walled 96-well plate overnight at 37 °C with 5% CO2 in complete media (DMEM + phenol red +10% FBS + antimycotic/antibiotic + nonessential amino acids). Cells were then washed once in PBS and treated with PE-III and peptide in serum-free media without phenol red, with a 50 μL total volume. After a 2-day incubation with treatment, 50 μL of 10% Alamar blue reagent diluted in serum-free media was added directly to each well (5% Alamar blue final) and incubated for 1.5 h at 37 °C. The plate was then read at 550 equiv/590 em on a Biotek plate reader. Untreated cells were used as a negative control, and MelP5-treated cells served as a positive control.

Data set [2] concerns HeLa cells. Kind of data set: Direct cytotoxicity without PE-III cargo (Alamar Blue). Type of data set: cell-based, human. The conditions noted are these: 200 μM peptide, no PE-III, 48 h. The method, then: The no treatment (no tx) control group contained cells but no peptide or PE-III enzyme. The Alamar Blue intensity of this group was defined as 100% viability. Media alone without cells was defined as 0% viability. […] When 200 μM D-pHD108 and 40 nM PE-III were added together, essentially 100% loss of cell viability was observed, showing that PE-III was effectively delivered to the cytosol by the pHD peptide. […] This observation provides strong support for the hypothesis that PE-III delivery occurs via endocytosis and that it is dependent on endosomal acidification because the L-amino acid peptide, but not the D-amino acid peptide, is susceptible to acidification-dependent proteolytic degradation which occurs in endosomal compartments.
We tested for direct toxicity of the acylated pHD peptides by incubating the same concentrations of acylated pHD peptide variants with cells in the absence of PE-III. […] Thus, all of the apoptosis observed in the PE-III delivery assays was due to the cytosolic delivery of intact PE-III and not to the direct action of the acylated pHD peptide.
On the technique in general: The colour change of resazurin is a common sign of viable cells or microbes.

The next data set has as its system RAW macrophages. The settings on record: read-out: EC50 (peptide concentration midpoint for PE-III delivery), PE-III constant, 48 h, Alamar Blue.

Where no end group is shown, it is not given here.

For “PLGRPQLRRGQF-NH2 [ONEG, reference compound]”, the PE-III delivery/apoptosis result in the data set on HeLa cells [1] (same concentration range as unmodified pHD108, 40 nM PE-III) is on record as “no measurable PE-III delivery/apoptosis”.

Consider `CC[C@@H](C)[C@@H](NC(=O)CN)C(=O)NCC(=O)N[C@H](CCC(=O)O)C(=O)N[C@@H](C(=O)N[C@H](CC(C)C)C(=O)N[C@H](Cc1c[nH]cn1)C(=O)N[C@H](CCC(=O)O)C(=O)N[C@H](CC(C)C)C(=O)N[C@H](C)C(=O)N[C@H](CCC(=O)O)C(=O)NCC(=O)N[C@H](CC(C)C)C(=O)N1CCC[C@@H]1C(=O)N[C@H](CCC(=O)O)C(=O)N[C@H](CC(C)C)C(=O)N[C@H](CCC(N)=O)C(=O)N[C@H](CCC(=O)O)C(=O)N[C@H](Cc1c[nH]c2ccccc12)C(=O)N[C@@H](C(=O)N[C@H](Cc1c[nH]cn1)C(=O)N[C@H](C)C(=O)N[C@H](C)C(=O)N[C@H](CCC(N)=O)C(=O)N[C@H](CCC(N)=O)C(=O)N[C@H](CC(C)C)C(N)=O)[C@H](C)CC)C(C)C` [D-pHD108], for which the “effect on cell viability, peptide alone” value with HeLa cells [2] is reported as “no effect on cell viability”. The “loss of cell viability” value in the data set with HeLa cells [1] (200 μM peptide + 40 nM PE-III, 37 °C, Alamar Blue) is approximately 100%. The EC50 in the data set on RAW macrophages worked out at 75 µM.

Values taken from PMC11656837, “pH-Responsive Peptide Nanoparticles Deliver Macromolecules to Cells via Endosomal Membrane Nanoporation” (ACS Nano, 2024).
